Values quoted from earlier work as cited in patent publication CN102406622A, “一种托伐普坦的固体制剂” (Zhejiang Huahai Pharmaceutical Co Ltd, priority 2011, dated 2012).

Conditions: low solubility, low permeability

Cc1ccccc1C(=O)Nc1ccc(C(=O)N2CCC[C@@H](O)c3cc(Cl)ccc32)c(C)c1 [托伐普坦, N-[4-[(5R)-7-氯-5-羟基-2,3,4,5-四氢-1-苯并氮杂卓-1-甲酰基]-3-甲基苯基]-2-甲基苯甲酰胺]
BCS class: IV类药
